Series [1] addresses T1, thrombin (Homo sapiens, UniProt P00734). The note with it: binding to thrombin; stated for known ligands; cited from earlier work.
The target of series [2] is T1, thrombin. Put plainly: competitive-binding capillary electrophoresis screening with fluorescently labeled competitive ligand (FCL). The note with it: for FCL/TG complex peak: FIG. 1. On the procedure:
Also prepared is 100 nM of a fluorescently labeled, tight-binding competitive ligand, single-stranded (ss) DNA oligonucleotide 5′-fluorescein-GGTTGGTGTGGTTGG-3′ (Kd=3×10^−9 M; hereinafter “FCL”). The mixture of target and candidate ligand (TG/LG) is first injected into the CE instrument for about ten (10) seconds to give a first plug, followed by a 10-second injection of FCL as the second plug.
Voltage of about 20 kV is applied to initiate electrophoresis, and the unbound competitive ligand (FCL) and bound FCL/TG complex peaks are monitored during CE by means of laser-induced fluorescence and a fluorescence detector positioned at a detection point along the capillary.
Here the thrombin target (TG) is incubated, prior to CE, for five minutes with samples containing hirugen and hirulog-1 at different concentrations. Each of these target/sample mixtures is subjected to a CE screening run, as follows. A plug of target/sample mixture is pressure-injected into the CE instrument for 10 seconds to give a first-injected plug. A second injection plug of 100 nM FCL is then injected for 10 seconds, and then voltage of about 20 kV is applied to start electrophoresis. The CE migration of the FCL and FCL/TG complex are monitored by way of laser-induced fluorescence. Again, the FCL has a higher electrophoretic mobility than the TG, so that the unbound FCL peak appears before that of the FCL/TG complex (see FIG. 2).

The term Kd denotes the equilibrium constant for the complex coming apart.

As for 5′-fluorescein-GGTTGGTGTGGTTGG-3′ [FCL], the Kd with thrombin [1] was 3 nM.
In the case of “D-Phe-Pro-Arg-Pro-(Gly)4-Asn-Gly-Asp-Phe-Glu-Glu-Ile-Pro-Glu-Glu-Tyr-Leu [hirulog-1]”, the Kd at thrombin [1] was roughly 2 nM. The FCL/TG complex peak result on thrombin [2] (50 nM hirulog-1 in sample, equivalent to 50 nM thrombin, 100 nM FCL) is recorded as “complete disappearance”; at thrombin [2] (increasing concentrations of hirulog-1, 50 nM thrombin pre-incubated 5 min, 100 nM FCL, 20 kV), “reduced”. Besides, the FCL/TG peak result at thrombin [2] (hirulog-1 in samples also containing hirugen, 100 nM FCL, FIG. 2) is “decrease”. Further, at thrombin [2] (samples containing hirugen and hirulog-1, FIG. 2), the “molar excess of weak-binding hirugen at which the hirulog-1 signal is detectable” value is reported as “up to 1,000 fold”.
For “Gly-54-Leu-65 carboxyterminal dodecapeptide of hirudin with sulfated tyrosine [hirugen]”, the Kd at thrombin [1] was 150 nM. The “change in competitive ligand's (FCL's) CE profile” value at thrombin [2] (pre-incubation of thrombin with 10,000 nM hirugen, 100 nM FCL, FIG. 2) is recorded as “no difference”.

Values taken from patent publication US6837977B1, “Capillary electrophoresis method for screening for affinity ligands using a detectable competitive ligand” (Cetek Corporation, priority 1999, dated 2005).
